In PMC10057977, “Use of In Vivo Imaging and Physiologically-Based Kinetic Modelling to Predict Hepatic Transporter Mediated Drug–Drug Interactions in Rats” (Pharmaceutics, 2023):
Where two headings read alike, the source gives them in different places.

Experiments:
[1] = Compartmental pharmacokinetic models of test drugs fitted to published rat data
Text: For all the selected drugs, compartmental pharmacokinetic models were developed to inform dose selection in the DCE-MRI studies. The one-compartment, two-compartment, or three-compartment pharmacokinetic models, following intravenous and oral administration, were fitted to published pharmacokinetic data for these drugs in rats. The models assumed linear pharmacokinetics of the six drugs investigated, to allow identification of the model parameters with the limited available rat pharmacokinetic data. […] The model equations, sources of pharmacokinetic data, parameters estimates, and criteria for the dose selection for all the drugs are reported in the Supplementary Material, Section S1. […]
The University of Manchester, Manchester M13 9PL, UK […]
S1. Pharmacokinetic models for test compounds
Pharmacokinetic models were developed for selected test compounds to inform dose selection in the dynamic contrast enhanced magnetic resonance imaging (DCE-MRI) studies, as described below. The one-compartment (Eq. S1–
Eq. S2), two-compartment (Eq. S3–Eq. S5), or three-compartment pharmacokinetic model (Eq. S6 –Eq. S9), following intravenous (IV) and oral administration, was fitted to available pharmacokinetic data in rat (Table S1). The precision of the parameter estimates (% coefficient of variation; CV) was calculated as described previously. […]
dA1(t) = R + k ∙A (t) − k ∙A (t) for 0 < t < Tinf […]
dA1(t)= ka ∙AG(t) − k10 ∙ A1(t) for t > Tinf S1 […]
dA1(t) = R + k ∙A (t) − (k + k )A (t) + k ∙A (t) for 0 < t < Tinf […]
dA1(t) = k ∙A (t) − (k + k )A (t) + k ∙ A (t) for t > Tinf
dA2(t)= k A (t) − k A (t) S4
dA1(t) = Rinf − (k10 + k12 + k13)A1(t) + k21 ∙ A2(t) + k31 ∙ A3(t) for 0 < t < Tinf […]
dA1(t) = −(k + k + k )A (t) + k ∙ A (t) + k ∙ A (t) for t > Tinf
dA2(t) = k A (t) − k A (t) S7
dA3(t) = k A (t) − k A (t) S8
Initial conditions for oral dose and IV bolus (Rinf=0):
• Oral dose: AG(0) = dose ∙F, all the other compartments equal to 0;
• IV bolus: A1(0) = dose, all the other compartments equal to 0.
Where t is time, An(t) is amount in compartment n at time t; Rinf is IV infusion rate; Tinf is the duration of IV infusion; ka, k10, k12, k21, k13 and k31 are rate constants; V1 is volume of compartment 1; F is oral bioavailability; and Y is the meas-ured drug concentration in plasma or blood.
These models assume linear kinetics of the test compounds, despite known non-linearity in pharmacokinetics for […]
The assumption of linear kinetics allowed simplification of the modelling exercise and enabled identification of the model parameters with the available pharmacokinetic data. The models were used to simulate test compound concentrations in plasma under different dosing schedules, to determine suitable doses for in vivo DCE-MRI studies.

[2] = cited from earlier work
MRP2 = details: in vitro; bracket not explained in the table; ref 30,43-55 and in-house data from Merck & Co.; cited from earlier work
[3] = fraction unbound in plasma; cited from earlier work
[4] = two-compartment model, rat plasma, fitted to published IV data
[5] = three-compartment model, rat, IV data (ciclosporin: blood; bosentan: plasma, example estimates)
[6] = one-compartment model, rat, fitted to published PK data

Row | Compound | V1 [1, 4] [mL] | k10 [1, 4] [h⁻¹] | k12 [1, 4] [h⁻¹] | k21 [1, 4] [h⁻¹] | IC50 (MRP2) [µM] | fu [3] | V1 [1, 6] [mL] | further results
1 | C=C[C@@H]1C[C@]1(NC(=O)[C@@H]1C[C@@H](Oc2ncc(OC)c3ccc(Cl)cc23)CN1C(=O)[C@@H](NC(=O)OC(C)(C)C)C(C)(C)C)C(=O)NS(=O)(=O)C1CC1 [Asunaprevir] | 96.0 | 6.79 | 3.71 | 1.60 | 4 |  |  | Cmax ([2]; human plasma, daily dose 200 mg (asunaprevir), read-out: Cmax (µM) [Daily Dose]): 0.76 µM
2 | COc1ccccc1Oc1c(NS(=O)(=O)c2ccc(C(C)(C)C)cc2)nc(-c2ncccn2)nc1OCCO [Bosentan] | 32 | 5.0 | 3.8 | 3.5 | > 100 | <0.02 |  | k10 ([1]; three-compartment model, rat, IV data (ciclosporin: blood; bosentan: plasma, example estimates highly sensitive to initial estimates)): 5.1 h⁻¹; K31 [1, 5]: 0.13 h⁻¹; V1 [1, 5]: 26 mL; k12 [1, 5]: 6.1 h⁻¹; k13 [1, 5]: 0.90 h⁻¹; k21 [1, 5]: 4.3 h⁻¹; Cmax ([2]; human plasma, daily dose 250 mg, read-out: Cmax (µM) [Daily Dose]): 3.3 µM
3 | CCc1ccc(CCOc2ccc(CC3SC(=O)NC3=O)cc2)nc1 (stereo not shown) [Pioglitazone] |  |  |  |  | > 133 | <0.01 | 88 | F ([1]; oral bioavailability, one-compartment model, rat): 0.66; Cmax ([2]; human plasma, daily dose 30 mg, read-out: Cmax (µM) [Daily Dose]): 4.8 µM
4 | CO[C@H]1/C=C/O[C@@]2(C)Oc3c(C)c(O)c4c(O)c(c(/C=N/N5CCN(C)CC5)c(O)c4c3C2=O)NC(=O)/C(C)=C\C=C\[C@H](C)[C@H](O)[C@@H](C)[C@@H](O)[C@@H](C)[C@H](OC(C)=O)[C@@H]1C [Rifampicin] |  |  |  |  | 55 | 0.2 | 182.1 | k10 [1, 6]: 0.294 h⁻¹; Cmax ([2]; human plasma, daily dose 600 mg, read-out: Cmax (µM) [Daily Dose]): 0.85 µM; Cmax ([2]; human, ref supplement [17], read-out: typical maximum plasma concentration (Cmax) in clinical studies): 4 to 20 µM; Ki (MRP2): 24.3 µM
